Laboratory results from patent publication US20130109720A1, “INDOLE INHIBITORS OF CRAC” (Hoffmann-La Roche Inc., priority 2011, published 2013).

Tested on: IL-2 production in Jurkat cell
Experiment: Jurkat IL-2 Production Assay
Type: cell-based
Settings: Homo sapiens, Jurkat cell (ATCC), PHA stimulation with 1% FBS or PMA/Ionomycin with 30% FBS (which one not stated), 18-20 h incubation
Description: Cell: Jurkat cell (ATCC) was grown in RPMI 1640 with 10% FBS and 1% penicillin/streptomycin. The cell density was kept at 1.2˜1.8×10^6/mL in culture flask before seeding into culture plate, and the cell density in the plate was 0.5×10^6/200 μL/well.
Culture media: RPMI 1640 with 1% FBS or 30% FBS for high serum assay.
Test compound: serial dilution was done in 100% DMSO, and intermediate dilution was done with RPMI 1640 medium with 1% FBS. The DMSO final concentration in culture well was 0.25%.
Stimulant: PHA (Sigma#L9017-10MG) was used for the assay with 1% FBS in culture medium, and added after 10 minutes exposure of cell to compound/DMSO. The […] final concentration in culture well was 5 μg/mL. PMA (Sigma# P-8139 5MG)/Ionomycin (Sigma# I0634-5MG) was used for the assay with 30% FBS in culture medium, and added at same time point as the 1% FBS culture assay. The final concentration of PMA was 50 ng/mL, and Ionomycin final concentration was 500 ng/mL.
Incubation: at 37° C. with 5% CO2 and 95% humidity for 18 h ˜20 h.
IC50: IC50 was calculated with the data analysis software XLfit4, General Pharmacology model 251.

IC50: 29 nM
Structure (SMILES): Cc1cc(S(C)(=O)=O)ncc1-c1ccc2[nH]c(-c3cncc(F)c3C)cc2c1 [Example 1, 2-(5-fluoro-4-methyl-pyridin-3-yl)-5-(6-methanesulfonyl-4-methyl-pyridin-3-yl)-1H-indole]
